Assay results taken from patent US10464957B2, “Oxidized lipids and methods of use thereof” (Vascular Biogenics Ltd., priority 2014, dated 2019).

Key:
[1] = test system: human monocytes (primary CD14+); assay: Chemokine-induced cell migration trans-well assay; assay type: cell-based; details: RANTES 100 ng/ml and MCP-1 50 ng/ml, 2-4 hours, FACS count
Experimental: Venous blood samples were obtained from healthy male donors in compliance with the Institutional Review Board at the Sheba Medical Center, Ramat Gan, Israel. PBMCs were isolated on Ficoll-Paque PLUS (GE Healthcare, Uppsala, Sweden) using 50 ml Leucosep tubes (Greiner Bio-One, Frickenhausen, Germany). Cells were washed in PBS (Kibbutz Beit Haemek, Israel) and incubated at 4° C. for 15 minutes in a buffer containing PBS and 0.5% bovine serum albumin (BSA) with human CD14 microbeads (Miltenyi Biotec, Bergisch Gladbach, Germany).
Cells (10^6/ml) were pretreated for 20 min with VB-201 or VB-701 at the doses indicated in FIG. 5, or with solvent (Sol).
To test for chemokine-induced cell migration, RANTES (100 ng/ml; Cat. No. 300-06, PeproTech, Israel) and MCP-1 (50 ng/ml; Cat. No. 300-04, PeproTech, Israel) were dissolved in RPMI-1640 medium supplemented with 0.5% fetal bovine serum (FBS) and placed at the lower chamber of QCM 24-well, […], migration assay plates (Corning-Costar, Corning, N.Y.). Cells (3×10^5) were seeded in the upper chamber and incubated for 2-4 hours. Subsequently, the number of cells which migrated to the lower compartment was determined by fluorescence-activated cell sorting (FACS).

[2] = target: T1, TLR4 complex (Homo sapiens, UniProt O00206+Q9Y6Y9); assay: LPS binding inhibition assay (biotin-LPS, FACS); details: biotin-LPS 100 ng/ml, FACS
T1 construct: endogenous in cells; probably the human primary monocytes of b454
T1 sequence (O00206 24-839): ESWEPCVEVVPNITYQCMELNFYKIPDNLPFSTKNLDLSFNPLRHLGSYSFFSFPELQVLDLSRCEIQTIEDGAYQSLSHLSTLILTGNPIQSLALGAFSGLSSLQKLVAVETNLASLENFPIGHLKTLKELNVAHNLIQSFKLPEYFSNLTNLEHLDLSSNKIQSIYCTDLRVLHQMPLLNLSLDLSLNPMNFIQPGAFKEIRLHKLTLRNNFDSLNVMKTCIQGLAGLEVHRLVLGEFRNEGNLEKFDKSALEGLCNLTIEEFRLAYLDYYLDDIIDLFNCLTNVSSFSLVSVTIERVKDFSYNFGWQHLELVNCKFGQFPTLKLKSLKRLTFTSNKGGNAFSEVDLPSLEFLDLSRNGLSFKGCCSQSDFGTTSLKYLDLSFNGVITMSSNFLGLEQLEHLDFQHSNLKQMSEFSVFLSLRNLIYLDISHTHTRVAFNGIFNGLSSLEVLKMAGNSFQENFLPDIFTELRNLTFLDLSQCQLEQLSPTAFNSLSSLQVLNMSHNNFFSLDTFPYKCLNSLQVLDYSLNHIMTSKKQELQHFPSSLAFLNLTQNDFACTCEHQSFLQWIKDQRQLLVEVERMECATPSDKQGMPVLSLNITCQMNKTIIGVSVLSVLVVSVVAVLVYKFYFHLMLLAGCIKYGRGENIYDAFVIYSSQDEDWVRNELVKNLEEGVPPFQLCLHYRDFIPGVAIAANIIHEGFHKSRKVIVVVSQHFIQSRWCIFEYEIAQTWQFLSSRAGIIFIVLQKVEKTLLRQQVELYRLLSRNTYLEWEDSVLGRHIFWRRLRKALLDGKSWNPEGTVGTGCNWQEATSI
T1 sequence (Q9Y6Y9 17-160 limits assumed): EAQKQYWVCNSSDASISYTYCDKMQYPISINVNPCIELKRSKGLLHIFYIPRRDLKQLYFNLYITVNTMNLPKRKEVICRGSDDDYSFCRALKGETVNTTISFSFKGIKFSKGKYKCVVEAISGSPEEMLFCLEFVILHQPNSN
Experimental: To assess interference with lipopolysaccharide (LPS) binding, VB-201 or VB-703 were incubated for 20 min with cells (10^6/ml) after which 100 ng/ml of biotin-LPS (InvivoGen) was added for an additional 15 minutes, all at 4° C. Cells were washed, resuspended in FACS buffer and analyzed on a FACS-Calibur device.

[3] = test system: NASH-induced mice; assay: NASH and liver fibrosis mouse model (STZ + HFD), liver histology; assay type: in vivo; details: VB-703 4 mg/kg, telmisartan 10 mg/kg, once daily for three weeks
Experimental: Neonatal male mice exposed to low-dose streptozotocin (STZ) develop liver steatosis with diabetes. Continuous high fat diet (HFD) increases lobular inflammation with foam cell-like macrophages, showing nonalcoholic steatohepatitis (NASH) pathology. NASH was induced in 40 male mice by a single subcutaneous injection of 200 μg per mouse of STZ two days after birth and feeding HFD [57 kcal % fat]) from four weeks of age. Vehicle, VB-703 (4 mg/kg), or telmisartan (10 mg/kg) as positive control, were administered once daily for three weeks, starting from six weeks of age. Mice were sacrificed at nine weeks of age.
Liver pathology was used to determine the effect of VB-703 on liver inflammation and fibrosis. Histology slides were stained with hematoxylin/eosin (H&E) to assess inflammation. The inflammation score was determined as follows:
Histology slides were stained with Sirius red to determine collagen content as a marker for the extent of fibrosis.

[4] = test system: nephrectomized rats; assay: 5/6 nephrectomy chronic renal disease rat model (focal and segmental glomerulosclerosis); assay type: in vivo, Sprague Dawley (SD) Rats; details: VB-703 4 mg/kg
Experimental: Male Sprague Dawley (SD) Rats (Harlan Laboratories, Israel) with an initial weight of 200 g were housed 2-3 per cage in IVC cages in dedicated HVAC (heat, ventilation, air conditioning animal facility at a temperature of 22±2° C. and RH (relative humidity) of 55±15%). Temperature and humidity were monitored continuously. The facility had no exposure to outside light and was maintained on automatic alternating cycles of 12 hours of light and 12 hours of dark. Animals were provided with a commercial rodent diet (Harlan Teklad TRM Rat/Mouse Diet) ad libitum and allowed free access to autoclaved water, supplied to each cage via polysulphone bottles with stainless steel sipper tubes. All animal work was approved by the Animal Care and Use Committee of Israel (IL-13-03-027).
Rats were divided into three groups: (1) Healthy rats (n=3) in group A, (2) Sham group—subjected to chirurgical process but without kidney mass reduction (n=3) in group B, and (3) the rest were induced with chronic renal failure (n=32). Chronic renal failure was induced by a two stage (5/6) nephrectomy (Nx), with subtraction firstly of about ⅔ of the left kidney by left flank incision and, one week later, complete removal of the right kidney. General anesthesia consisted of intraperitoneal injection of ketamine 100 mg/kg and xylazine 20 mg/kg (0.85 ml ketamine+0.15 ml xylazine for each ml preparation; 1 μl/g BW was injected I.P).
One week following the second surgery, rats were randomly assigned to the following experimental groups:
Nephrectomized, orally administered with VB-703 4 mg/kg (n=8); and
Nephrectomized, orally administered with telmisartan 10 mg/kg as positive control (n=8).
Body weight (BW) was monitored throughout the study and rats were treated by oral gavage according to their body weight for 7 weeks. Rats were sacrificed by CO2 inhalation 8 weeks from removal of the right kidney (2nd surgery).
Proteinuria and albuminuria was determined in urine specimens, collected during a 24-hour period, from animals housed in cages at 4 weeks (3 w of treatment) and 8 weeks (7 w of treatment) after the subtotal nephrectomy (2nd surgery). Urine samples were analyzed for: glucose, urea, sodium, potassium, creatinine, total protein, and albumin.
Upon sacrifice, at 8 weeks, kidneys were collected, weighed and fixed in 4% formaldehyde.
For light microscopy, paraffin-embedded tissue slides of 4 μm were stained with Periodic Acid-Schiff (PAS) reagent, Masson's Trichrome and Hematoxylin & Eosin.
Glomerular sclerosis index. Glomerulosclerosis was assessed by PAS-stained sections using a semiquantitative scoring system. The extent of glomerulosclerosis was evaluated by examining mostly 100 randomly selected glomeruli at a magnification of ×400 and applying a score system according to the percentage of sclerosed glomerular area. The score was graded from 0 to 4: (0=0% area; 1=1-25%; 2=26-50%, 3=51-75%, 4=76% and above). The mean of all scored glomeruli was presented. Moreover, the extent of global and segmental glomerulosclerosis was evaluated in the same glomeruli, where <80% sclerosis was referred to as segmental and >80% was referred to as global.
Glomerular area. The glomerular area of mostly 100 randomly selected glomeruli at a magnification of ×100 was quantitated by counting squares covered by glomeruli area using a grid and the mean glomeruli area was calculated.
Renal tissues were fixed in 4% formaldehyde and embedded in paraffin. The paraffin-embedded tissues were then cut to form tissue slides of 4 μm. Immunohistochemistry of the paraffin-embedded tissue slides was analyzed using antibodies in the following concentration: monoclonal mouse anti rat CD-68 (ED-1, Serotec MCA341) 1:25. For quantitation of interstitial CD68+ staining, the number of positive cells was counted in 20 randomly selected non-overlapping fields per animal, and the mean value was presented. […]

[5] = test system: kidney of nephrectomized rats; assay: Real-time PCR of pro-fibrotic markers in kidney of nephrectomized rats; assay type: in vivo, Sprague Dawley (SD) Rats
Experimental: Kidney RNA was extracted with an RNeasy Fibrous Tissue Mini kit (Qiagen) and after DNAse I treatment, single-stranded cDNA was synthesized from 2 μg total RNA using the qScript cDNA Synthesis Kit (Quanta Biosciences) and diluted for real-time PCR. The expression of collagen 4α, fibronectin and TGFβ was quantified using the 7300 Real Time PCR System (Applied Biosystems). The assay was performed according to manufacturer instructions using the primers (Assay ID) represented at the table below supplied by Applied Biosystems. Data were normalized to the reference gene TATA box Binding Protein (TBP) and presented as relative mRNA levels compared with Sham PBS 0.5% Eth treatment (Table 1).

[6] = Nx rats, Telmisartan 10 mg/kg, 8 weeks, Mean ± S.E
[7] = telmisartan 10 mg/kg, oral 7 weeks, vs Nx PBS 0.5% Eth
[8] = compared to Nx PBS 0.5% Eth treatment, VB-703 4 mg/kg, telmisartan 10 mg/kg
[9] = normalized to TBP, relative to Sham PBS 0.5% Eth, mean±SEM

| LPS-biotin binding to human monocytes (primary CD14+) [2] | Structure (SMILES) | chemokine-induced migration of human monocytes [1] | decrease of liver fibrosis compared to vehicle treated mice (Sirius red) [3] [%] | Glomerular sclerosis Global % [4, 6] [%] | Glomerular sclerosis Global & Segmental % [4, 6] [%] | Glomerular sclerosis Segmental % [4, 6] [%] | glomerular and interstitial monocyte/macrophage infiltration (CD68 positive cells) ([4]; telmisartan 10 mg/kg, 8 weeks) | reduction of damaged glomeruli percent [4, 7] [%] | reduction of sclerotic glomeruli [4, 7] [%] | reduction of Collagen IV expression [5, 8] [%] | reduction of TGF-β expression [5, 8] [%] | reduction of fibronectin expression [5, 8] [%] | Collagen IV mRNA expression (relative mRNA level) [5, 9] | TGF-β mRNA expression (relative mRNA level) [5, 9] | fibronectin mRNA expression (relative mRNA level) [5, 9] |
| --- | --- | --- | --- | --- | --- | --- | --- | --- | --- | --- | --- | --- | --- | --- | --- |
| does not inhibit | CCCCCCCCCCCCCCCCOCC(COP(=O)([O-])OCC[n+]1ccccc1)OCCCCC(=O)OC (stereo not drawn) [VB-704, 1-hexadecyl-2-(4′-carboxymethyl)butyl-glycero-sn-3-phosphoric acid pyridiniumethyl ester] | inhibits |  |  |  |  |  |  |  |  |  |  |  |  |  |
|  | CCCc1nc2c(C)cc(-c3nc4ccccc4n3C)cc2n1Cc1ccc(-c2ccccc2C(=O)O)cc1 [telmisartan, reference compound] |  | 47 | 1.9 ± 1.60 | 21.0 ± 5.45 | 19.1 ± 4.30 | did not produce a significant effect | 31 | 57 | 41 | 44 | 23 | 4.4±0.23 | 4.7±0.52 | 9.8±2.09 |
